The target of data set [1] is T1, FLAG/HA-tagged RBP IGF2BP1 (Homo sapiens, UniProt Q9NZI8).
T1 construct: expressed in transfected cells; host or cells: Flp-In T-REx HEK293 (Invitrogen), pFRT/TO/FLAG/HA-DEST, doxycycline-induced
Description: UV 365 nm crosslinking of RNA to FLAG/HA-IGF2BP1 in cells cultured with photoreactive nucleoside (IP, 32P-labeling, SDS gel phosphorimaging). The format is cell-based. Conditions: 100 μM photoreactive nucleoside, 365 nm UV. The protocol:
FIG. 1. PURE-CLIP methodology. A Structure of photoreactive nucleosides. B Incorporation of photoreactive nucleosides to enable UV 365 nm crosslinking of RNA to RNA-binding IGF2BP1 protein. Upper panels show phosphorimages of SDS protein gels resolving 5′-32P-labeled RNA-FLAG/HA-IGF2BP1 immunoprecipitates (IPs) prepared from lysates from cells that were cultured in media in the absence or presence of 100 μM photoreactive nucleoside for 12 hrs and crosslinked with 365 nm UV. For comparison, a sample prepared from cells crosslinked at 254 nm, was included. Lower panels show immunoblots probed with an anti-HA antibody confirming uniform gel loading. C Illustration of the method. […]
Incorporation of modified photoreactive nucleoside analogues into RNA facilitates UV crosslinking to RBPs (Meisenheimer and Koch, 1997), as shown previously for in vitro transcribed site-specifically labeled RNAs (Kirino and Mourelatos, 2008; Moore and Query, 1998). Several of these photoreactive nucleosides are excitable by longer wavelength UV (>300 nm) and are readily taken up by cells, where they are incorporated into nascent transcripts without noticeable toxicity and then can be used for in vivo crosslinking (Bezerra and Favre, 1990; Favre et al., 1986; Wagenmakers et al., 1980). […]

The test system of data set [2] is transcripts containing miR-7- or miR-124-specific CCRs. Description: miR-7 and miR-124 duplex transfection into HEK293 cells, mRNA stability by Affymetrix microarrays. The format is cell-based, human. To be noted: HEK293 cells stably expressing FLAG/HA-AGO2. From the text:
To allow for a comparison to such studies, we transfected miRNA duplexes corresponding to the deeply conserved miR-7 and miR-124 into HEK293 cells stably expressing FLAG/HA-AGO2 and performed PURE-CLIP. Before transfection, these miRNAs were only present in trace amounts in HEK293 cells, less than 0.2% of total miRNA abundance. We found 1,866 unique sequence read clusters in the miR-7 and 10,929 in the miR-124 transfection experiments. The CCRs isolated from miR-7 and miR-124 transfection experiments were enriched for the seed sequences of the transfected miRNA duplexes. These CCRs were predominantly exonic (87 and 88%, respectively), 28% mapped to the CDS, 57 and 59%, respectively, to the 3′UTR of mRNAs and only 3 and 2%, respectively, to the 5′UTR. miR-7 and miR-124 binding sites that were located in the CDS for miR-7 and -124 were also embedded in regions with unusual codon bias, similar to the binding sites of endogenous miRNA target sites (FIG. 31).
The change in mRNA stability was analyzed after miRNA duplex transfection by Affymetrix whole genome microarrays (Hausser et al., submitted). We observed that transcripts containing miR-7- or miR-124-specific CCRs were destabilized upon miRNA delivery, especially for transcripts with CCRs located in the 3′UTR (FIG. 32-33). […]

The subject of data set [3] is cells. To be noted: exposure longer than 24 hrs in culture medium; cited from earlier work.
Data set [4] concerns the target T2, recombinant QKI protein (Homo sapiens, UniProt Q96PU8).
T2 construct: His6 (N); made in house; host or cells: E. coli STAR(DE3)
T2 sequence (Q96PU8 1-319 isoform Q96PU8-9): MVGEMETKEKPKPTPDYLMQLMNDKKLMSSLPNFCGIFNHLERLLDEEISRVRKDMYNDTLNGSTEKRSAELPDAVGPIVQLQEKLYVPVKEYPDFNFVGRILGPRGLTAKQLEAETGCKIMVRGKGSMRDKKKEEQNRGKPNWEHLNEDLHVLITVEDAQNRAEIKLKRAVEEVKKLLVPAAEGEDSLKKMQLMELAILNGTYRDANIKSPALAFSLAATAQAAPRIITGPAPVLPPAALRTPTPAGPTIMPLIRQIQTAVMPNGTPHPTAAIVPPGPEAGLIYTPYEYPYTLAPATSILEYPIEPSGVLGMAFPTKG
Description: UV 365 nm crosslinking of synthetic 4SU-containing oligoribonucleotides to recombinant QKI. Conditions: 4SU at position 2 vs position 3 of the recognition element. Type of data set: biochemical. An excerpt: FIG. 3. RNA recognition sites of QKI protein. A Domain structure of QKI protein. B Phosphorimage of SDS polyacrylamide gel resolving radiolabeled RNA crosslinked to FLAG/HA-QKI IPs from non-irradiated or UV-irradiated 4SU-labeled cells. […] C Two alignments of PURE-CLIP cDNA sequence reads to the corresponding regions of the 3′UTRs of the Refseq CTNNB1 and HOXD13 transcripts, respectively. Red bars indicate the QKI recognition motif and red-letter nucleotides indicate T to C sequence changes. D Weblogo of the QKI recognition motif generated by PhyloGibbs analysis of the top 100 sequence read clusters. […] F Sequences of synthetic 4SU-labeled oligoribonucleotides with QKI recognition motifs, derived from a sequence read cluster aligning to the 3′UTR of HOXD13 (see c). […]
To better understand the […] sequence conversion after sequencing of crosslinked RNA segments, we subjected synthetic 4SU-containing oligoribonucleotides together with recombinant QKI to UV 365 nm crosslinking (FIGS. 3F, G). […] RNA-binding to recombinant QKI protein was unaffected by 4SU incorporation at U9 or U10 as determined by gel-shift analysis (FIG. 11A-B), whereas regular mutation of the recognition element weakened the binding (FIG. 11C). […]

Data set [5] deals with T3, recombinant His6-QKI protein (Homo sapiens, UniProt Q96PU8).
T3 construct: His6 (N); made in house; host or cells: E. coli STAR(DE3)
T3 sequence (Q96PU8 1-319 isoform Q96PU8-9): T2 sequence (Q96PU8 1-319 isoform Q96PU8-9)
Description: Electrophoretic mobility shift assay (gel-shift) with recombinant QKI. The format is binding. The protocol:
FIG. 11: Electrophoretic mobility shift assay (EMSA) to analyze binding of recombinant QKI to synthetic oligoribonucleotides with a sequence derived from a cluster identified by QKI PURE-CLIP. […] C Mutation of either one of the QKI binding sites (marked with red bars in the RNA-sequence) results in decreased affinity of QKI to the RNA. Mutation of both binding sites leads to complete loss of affinity of QKI to the RNA.
Radiolabeled RNA (1 nM) was incubated with recombinant His6-QKI protein at various concentrations and 100 ng tRNA in 20 μl of 20 mM HEPES-KOH, pH 7.4, 330 mM KCl, 10 mM MgCl2, 0.1 mM EDTA and 0.01% IGEPAL CA630 (Sigma). After addition of 6 μl loading dye (40% glycerol, bromophenol blue in binding buffer), the solution was loaded onto a native 10% acrylamide gel containing 0.5×TBE, running at 200 V for 2 h at room temperature, using 0.5×TBE as running buffer. The protein-bound RNA and the free RNA were quantified using a phosphorimager.

[4sU] = 4-thiouridine

T1 sequence (Q9NZI8 whole entry): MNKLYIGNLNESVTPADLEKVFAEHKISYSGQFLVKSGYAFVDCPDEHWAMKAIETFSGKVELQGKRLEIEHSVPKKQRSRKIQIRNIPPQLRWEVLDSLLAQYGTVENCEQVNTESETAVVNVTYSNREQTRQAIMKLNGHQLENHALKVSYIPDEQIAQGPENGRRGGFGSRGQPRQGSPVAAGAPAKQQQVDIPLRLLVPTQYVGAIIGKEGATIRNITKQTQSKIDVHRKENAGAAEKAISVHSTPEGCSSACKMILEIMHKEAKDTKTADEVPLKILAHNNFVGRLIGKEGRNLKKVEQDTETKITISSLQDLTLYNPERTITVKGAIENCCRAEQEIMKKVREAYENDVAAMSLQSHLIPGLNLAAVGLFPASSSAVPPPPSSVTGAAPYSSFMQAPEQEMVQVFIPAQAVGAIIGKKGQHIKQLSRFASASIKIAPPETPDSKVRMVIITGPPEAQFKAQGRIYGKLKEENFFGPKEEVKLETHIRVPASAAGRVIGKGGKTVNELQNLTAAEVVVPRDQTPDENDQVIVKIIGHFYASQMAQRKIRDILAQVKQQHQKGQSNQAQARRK

Regarding `O=c1[nH]c(=S)ccn1[C@@H]1O[C@H](CO)[C@@H](O)[C@H]1O` [4SU, 4-thiouridine], in data set [1], the “crosslinking efficiency of nucleoside-labeled RNA to IGF2BP1” value was “crosslinked most efficiently”.
“miR-7: transfected miRNA duplex, 5'-UGGAAGACUAGUGAUUUUGUUGU / 5'-CAACAAAUCACAGUCUGCCAUA (SEQ ID NO: 66, 67) (listed as RNA, chemistry not given here)”: in data set [2], the “change in mRNA stability of CCR-containing transcripts after miRNA duplex transfection” value is “destabilized”.
Turning to `Nc1nc2c(ncn2[C@@H]2O[C@H](CO)[C@@H](O)[C@H]2O)c(=S)[nH]1` [6SG, 6-thioguanosine], the “concentration above which cytotoxicity is noticeable” value in data set [3] was “above 100 μM”.
On to “U9: synthetic oligoribonucleotide with 4SU at position 2 of the QKI recognition element; GUAUGCCA(4sU)AACAAAUUCAUUAACAA (SEQ ID NO: 30) (GUAUGCCAUAACAAAUUCAUUAACAA; RNA, [4sU] at 9, backbone not given here)”, for which the “crosslinking efficiency to recombinant QKI relative to oligonucleotide U10” value in data set [4] was “approximately 50 times”. For the same molecule, in data set [5], the “RNA-binding / affinity to recombinant QKI by gel-shift analysis” value is given as “unaffected”.

The values above are taken from US8841073B2, “Methods for identifying RNA segments bound by RNA-binding proteins or ribonucleoprotein complexes” (The Rockefeller University, priority 2008, dated 2014).
